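Five concentrations, 48 hours, 96-well plates. GI50 is the concentration that inhibits growth by half. TGI denotes the concentration required for complete inhibition of growth.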 Where a SMILES comes first, the peptide text is derived from it. [ ]: non-standard residue; d: D form. 2Nal = N[CH](Cc1ccc2ccccc2c1)C(=O)O
Key:
Experiment in all cases: growth of human tumour cells (NCI), 48 h
[1] = system: HOP-92 NSCLC
[2] = system: MOLT-4 leukemia
[3] = system: SF-295 CNS
[4] = system: SW-620 colon
[5] = system: ACHN renal
[6] = system: HT29 colon
[7] = system: HOP-62 NSCLC
[8] = system: UO-31 renal
[9] = system: OVCAR-3 ovarian
[10] = system: NCI-H226 lung

Row | SMILES | TGI [1] [µM] | TGI [2] [µM] | TGI [3] [µM] | TGI [4] [µM] | TGI [5] [µM] | TGI [6] [µM] | TGI [7] [µM] | TGI [8] [µM] | TGI [9] [µM] | GI50 [10] [µM] | TGI [10] [µM] | GI50 [2] [µM] | GI50 [3] [µM] | GI50 [4] [µM] | GI50 [5] [µM] | GI50 [6] [µM] | GI50 [7] [µM] | GI50 [8] [µM] | GI50 [9] [µM] | GI50 [1] [µM]
1 | CC1=C2[C@H](c3ccccc3)C3C=CC2(c2ccccc23)N(C(=O)C(c2ccccc2)c2ccccc2)C1=O (stereo not given in full) | > 100 | > 100 | > 100 | > 100 | > 100 | > 100 | > 100 | > 100 | > 100 |  |  |  |  |  |  |  |  |  |  | 
2 | C=C1C(=O)OC2C1C(OC(=O)/C(C)=C\C)CC1(CO1)C1C(O)C=C(C)C21O (stereo not given) | 31.3 | 11.8 | 41.7 | 3.34 | 13.9 | 31.4 | 41.1 | 22.2 | 11.3 |  |  |  |  |  |  |  |  |  |  | 
3 | O=C(NNC(=S)Nc1ccccc1)c1ccccn1 |  | > 100 | > 100 | > 100 | > 100 | > 100 | > 100 | 16.9 | > 100 | 3.3 | > 100 | 2.84 | 1.97 | 4.54 | 1.22 | 4.17 | 5.52 | 0.95 | 6.83 | 
4 | CCOC(=O)c1c2cccccc2n2c(=O)cc(C)nc12 |  | > 100 | > 100 | > 100 | > 100 | > 100 | > 100 | > 100 | > 100 |  | > 100 |  |  |  |  |  |  |  |  | 
5 | COc1ccc(/C=c2/sc3n(c2=O)NC(c2ccc(Cl)cc2)NN=3)cc1 (stereo not given) | > 100 | > 100 | > 100 | > 100 |  | > 100 |  | > 100 | > 100 |  | > 100 |  |  |  |  |  |  |  |  | 
6 | COC(=O)C1=C(O)[C@H](C(=O)OC)[C@]2(O)[C@@H](C(=O)OC)[C@H]1C[C@@H](c1ccc(OC(=O)/C=C/c3ccco3)cc1)[C@@H]2C(=O)OC | 48.3 | 6.67 | 65.2 | > 100 | 28.7 | > 100 | 30.5 |  | 82.5 | 15.8 | 37.1 | 1.29 | 19.6 | 36.3 | 14.4 | 11.5 | 15.7 |  | 27.6 | 18.1
7 | CC(=O)C1CCC2C3CC=C4CC(SC(=N)N)CCC4(C)C3CCC12C (stereo not given) |  | 4.19 | 2.99 | 3.16 |  | 2.14 | 3.6 | 7.54 |  | 2.9 | 9.26 | 1.78 | 1.49 | 1.62 |  | 0.809 | 1.93 | 2.36 |  | 
8 | CC(C)C(NC(=O)C(CCCCN)NC(=O)C(Cc1c[nH]c2ccccc12)NC(=O)C(Cc1ccc(O)cc1)NC(=O)C(CS)NC(=O)C(N)Cc1ccc2ccccc2c1)C(=O)NC(CS)C(=O)NC(C(N)=O)C(C)O (stereo not given) (H-[2Nal]CYWKVCT-NH2; configuration not given here) |  | > 100 | > 100 | > 100 | > 100 | > 100 | > 100 | > 100 | > 100 |  | > 12.5 | > 100 | > 100 | > 100 | > 100 | > 100 | > 100 | > 100 | > 100 | 
9 | CN(C)CCC1(C2=CCCC2)CC/C(=C\c2ccccc2Cl)C1=O (stereo not given) | 26.3 | 18.3 | 27.9 | 25.2 | 31.1 | 20.7 |  | 20.1 | 28.9 |  |  |  |  |  |  |  |  |  |  | 
10 | CCCCCCCCCOC(=S)NCCCCC | 53.9 | 42.6 | > 100 | > 100 | 69.9 | 63.4 | 80.9 | 51.1 |  |  |  |  |  |  |  |  |  |  |  | 
11 | COC(=O)C(=O)C(C(=O)C=C(C)C)C(=O)C(=O)Nc1nc2ccc([N+](=O)[O-])cc2s1 (stereo not given) | 74.2 | > 100 |  | > 100 | > 100 | > 100 | > 100 | > 100 | > 100 |  | > 100 |  |  |  |  |  |  |  |  | 
12 | COc1cc(CC(C(=O)O)C(=O)O)c(OC)cc1CC(C(=O)O)C(=O)O | > 100 | > 100 | > 100 | > 100 |  | > 100 | > 100 | > 100 | > 100 |  | > 100 |  |  |  |  |  |  |  |  | 
13 | NNC(=O)N/N=C1\C(=O)N(c2nccs2)C(=O)C(=O)C1c1nc2ccccc2s1 (stereo not given) | > 100 |  | > 100 | > 100 | > 100 | > 100 | > 100 | > 100 | > 100 |  | > 100 |  |  |  |  |  |  |  |  | 
14 | OC1CCC[C@@H]1Sc1ccccc1 (stereo not given in full) | > 100 | > 100 | > 100 | > 100 | > 100 |  | > 100 | > 100 | > 100 |  |  |  |  |  |  |  |  |  |  | 
15 | COc1cc(/C=C\c2ccc(OC(C)=O)cc2)cc(OC)c1OC | > 100 | > 100 |  | > 100 | > 100 | > 100 | > 100 | 28.7 | > 100 |  | > 100 |  |  |  |  |  |  |  |  | 
16 | COC(=O)C(=O)C(C(=O)C(=O)Nc1ccc(C)cc1)c1nc2ccc(C(=O)c3ccccc3)cc2[nH]c1=O (stereo not given) | > 100 |  | > 100 | > 100 | > 100 | > 100 | > 100 | > 100 | > 100 |  | > 100 |  |  |  |  |  |  |  |  | 
17 | CN(O)C(=S)c1ccccc1 | > 100 | 5.11 | 35.9 | 14.6 | 37.7 |  | > 90.8 | 21.6 | 34.8 |  | > 100 |  |  |  |  |  |  |  |  | 
18 | O=c1c(-c2ccc(O)cc2)coc2cc(OC3OC(CO)C(O)C(O)C3O)cc(O)c12 (stereo not given) |  | > 100 | > 100 | > 10 | > 100 | > 100 | > 100 | > 100 | > 100 |  | > 100 | > 10 |  |  | > 10 |  | > 100 |  |  | 
19 | CC1=NN(C(=O)c2ccc(Cl)cc2)C(=O)/C1=C/c1ccco1 | > 100 | > 100 | > 100 | > 100 | > 100 | > 100 | > 100 | > 100 | > 100 |  |  |  |  |  |  |  |  |  |  | 
20 | CCCCCCCCCCCCCC(=O)OCC1OC(n2cc(F)c(=O)[nH]c2=O)C(N)C(OC(=O)CCCCCCCCCCCCC)C1O (stereo not given) | > 100 | > 100 | > 100 | > 100 | > 100 | > 100 | > 100 | > 100 | > 100 |  |  |  |  |  |  |  |  |  |  | 

Source: PubChem BioAssay (NCI)
